Results taken from patent US11965159B2, “Compositions and methods for regulating proteins and nucleic acids activities” (THE BROAD INSTITUTE, INC., priority 2019, dated 2024).
Entries after “also recorded” stand apart in the source; their conditions may differ.

Tests used:
Format in all cases: cell-based
[1] = test system: dCas9; test: dCas9-based transcriptional activation of HBG1 gene in HEK293FT cells (RT-qPCR); conditions: for inhibition of the HBG1 transcriptional activation: 48 hours
Method: Transcription activation experiments and quantitative RT-PCR analyses. For transcription activation experiments 250,000 cells/well were plated in a 12 well plate. The cells were transiently transfected with a 1:1:1 mass ratio of the dCas9 plasmid, MS2-P65-HSF1 effector plasmid and the sgRNA plasmid targeting the HBG1 gene or an RFP control plasmid. A total of 1.6 μg plasmid DNA was transfected using Lipofectamine™ 2000 (Life Technologies™) according to manufacturer's protocol. Immediately after transfection, the cells were treated with an appropriate dose of the small molecule inhibitors for 48 hours following which the cells were harvested and RNA was extracted using the EZNA® Total RNA kit I (OMEGA) as per manufacturer's instructions. 1 μg total cellular RNA was used to perform reverse transcription using the High-Capacity cDNA Reverse Transcription Kit (Applied Biosystems™) or the qScript® cDNA Synthesis Kit (QUANTABIO). qPCR reactions were performed to quantify RNA expression using the TaqMan™ probes (Life Technologies™ HBG1/HBG2: Hs00361131_g1 and ACTB: Hs01060665_g1) and TaqMan™ Fast Advanced Master Mix (Life Technologies™) in 5 μL multiplexed reactions and 384-well format using the LightCycler® 480 Instrument II (ROCHE). For each sample, six technical replicates were performed. Data were analyzed using the LightCycler® 480 software (ROCHE) by the ΔΔCt method: Ct values for the gene of interest (HBG1) were normalized to Ct values for the housekeeping gene (ACTB) and fold-changes in the expression level of the gene of interest were normalized to RFP-transfected control. The data are reported as mean S.E.M. for technical replicates.
For transcription activation experiments 250,000 cells/well were plated in a 12 well plate. […] Data were analyzed using the LightCycler® 480 software (ROCHE) by the ΔΔCt method: Ct values for the gene of interest (HBG1) were normalized to Ct values for the housekeeping gene (ACTB) and fold-changes in the expression level of the gene of interest were normalized to RFP-transfected control. […]

[2] = test system: HEK293T cells; test: Cell viability assay (ATP content) of HEK293T cells; conditions: up to 20 μM, 24 h
Method: FIG. 23—Cell viability assay (ATP content) of HEK293T cells in the presence of compounds. Measurement of ATP content of HEK293T cells upon incubating with BRD7087 and BRD5779 (5-20 μM) for 24 h. Error bars represent ±S.D. from technical replicates (n=3).
FIG. 67. Cell viability assay (ATP content) of HEK293T cells in the presence of compounds. Measurement of ATP content of HEK293T cells upon incubating with BRD7087 and BRD5779 (5-20 μM) for 24 h. Error bars represent ±S.D. from technical replicates (n=3).

[3] = target: SpCas9 (Streptococcus pyogenes serotype M1, UniProt Q99ZW2); test: mCherry-GFP NHEJ assay; parameters: host or cells: U2OS.eGFP-PEST; conditions: 2-10 μM, 24 h
Chain of SpCas9 (Q99ZW2 whole entry): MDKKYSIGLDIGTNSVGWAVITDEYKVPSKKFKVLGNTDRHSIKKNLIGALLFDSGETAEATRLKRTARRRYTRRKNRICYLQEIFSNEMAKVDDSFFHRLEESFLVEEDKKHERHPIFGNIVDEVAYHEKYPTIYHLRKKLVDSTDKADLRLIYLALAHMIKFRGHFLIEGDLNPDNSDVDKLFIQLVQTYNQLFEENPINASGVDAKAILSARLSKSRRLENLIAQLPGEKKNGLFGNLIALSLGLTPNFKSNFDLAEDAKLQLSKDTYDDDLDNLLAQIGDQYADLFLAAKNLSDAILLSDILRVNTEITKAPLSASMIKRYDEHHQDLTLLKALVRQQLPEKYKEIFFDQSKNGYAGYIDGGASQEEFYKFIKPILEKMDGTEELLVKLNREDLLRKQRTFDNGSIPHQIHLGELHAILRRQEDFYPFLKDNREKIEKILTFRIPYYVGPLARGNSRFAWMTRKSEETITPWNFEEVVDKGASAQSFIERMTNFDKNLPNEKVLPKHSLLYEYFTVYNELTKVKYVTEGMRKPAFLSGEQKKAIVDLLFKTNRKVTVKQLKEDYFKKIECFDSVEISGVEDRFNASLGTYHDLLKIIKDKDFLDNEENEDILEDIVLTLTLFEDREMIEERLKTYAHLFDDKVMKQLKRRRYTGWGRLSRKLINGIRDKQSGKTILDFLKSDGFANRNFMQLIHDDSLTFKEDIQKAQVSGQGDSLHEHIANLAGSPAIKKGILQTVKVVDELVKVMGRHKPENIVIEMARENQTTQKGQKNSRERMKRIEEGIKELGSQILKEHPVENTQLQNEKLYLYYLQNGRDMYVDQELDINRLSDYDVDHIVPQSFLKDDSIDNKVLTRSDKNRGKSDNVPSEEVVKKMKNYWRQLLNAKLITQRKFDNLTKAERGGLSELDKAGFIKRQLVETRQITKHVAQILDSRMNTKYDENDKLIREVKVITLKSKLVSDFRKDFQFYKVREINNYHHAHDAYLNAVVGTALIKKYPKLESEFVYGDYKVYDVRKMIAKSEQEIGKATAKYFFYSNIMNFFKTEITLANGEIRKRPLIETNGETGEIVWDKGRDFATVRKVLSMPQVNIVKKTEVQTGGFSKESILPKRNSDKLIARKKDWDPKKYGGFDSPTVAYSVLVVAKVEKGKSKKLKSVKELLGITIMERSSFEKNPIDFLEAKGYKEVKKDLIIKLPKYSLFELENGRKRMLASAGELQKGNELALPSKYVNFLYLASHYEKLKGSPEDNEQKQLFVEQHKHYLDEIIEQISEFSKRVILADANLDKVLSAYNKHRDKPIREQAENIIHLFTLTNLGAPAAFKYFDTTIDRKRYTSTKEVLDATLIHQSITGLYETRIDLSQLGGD
Method: NHEJ assay. Approximately 8,000 cells/well were plated in a 96-well format 24 h before transiently transfected with a total 100 ng of DN66 (mCherry-TAG-GFP reporter) and DN78 (SpCas9 and gRNA) plasmids (1:1) using Lipofectamine™ 2000 (Life Technologies™) 3. Transfected cells were allowed to grow in the indicated amount of compound or DMSO for 24 h. Cells were then fixed using 4% paraformaldehyde and imaged with the HCS NuclearMask™ Blue Stain (Life Technologies™) as the nuclear counter-staining agent. Imaging was performed with an IXM 137204 ImageXpress® Automated High Content Microscope (Molecular Devices™) at 20× magnification under three excitation channels (blue, green and red) with 9 acquiring sites per well. Images were analyzed in the MetaXpress® software to determine the % NHEJ and the data were plotted using GraphPad Prism 6. The Z′-value was calculated following the formula:
NHEJ assay. Approximately 8,000 cells/well were plated in a 96-well format 24 h before transiently transfected with a total 100 ng of DN66 (mCherry-TAG-GFP reporter) and DN78 (SpCas9 and gRNA) plasmids (1:1) using Lipofectamine™ 2000 (Life Technologies™)^3. […] Images were analyzed in the MetaXpress® software to determine the % NHEJ and the data were plotted using GraphPad Prism 6. The Z′-value was calculated following the formula: […]

Compound | inhibition of transcriptional activation ([1]; 10 μM) | inhibition of the HBG1 transcriptional activation [1] | cellular ATP-levels [2] | inhibition of SpCas9-mediated NHEJ [3]
OC[C@H]1Nc2ccc(-c3cccc(F)c3)cc2[C@H]2[C@@H]1CCN2Cc1ccncc1 [BRD7087, ((3aR,4S,9bR)-8-(3-Fluorophenyl)-1-(pyridin-4-ylmethyl)-2,3,3a,4,5,9b-hexahydro-1H-pyrrolo[3,2-c]quinolin-4-yl)methanol] | > 60% | dose-dependent inhibition | did not significantly alter | active; also recorded: Dose-dependent inhibition of SpCas9-mediated NHEJ
COc1ccc(-c2ccc3c(c2)[C@H]2[C@H](CCN2Cc2ccncc2)[C@@H](CO)N3)cc1 [BRD5779, ((3aR,4S,9bR)-8-(4-Methoxyphenyl)-1-(pyridin-4-ylmethyl)-2,3,3a,4,5,9b-hexahydro-1H-pyrrolo[3,2-c]quinolin-4-yl)methanol] |  | dose-dependent inhibition | did not significantly alter | active; also recorded: Dose-dependent inhibition of SpCas9-mediated NHEJ
